Test results reported in paper PMC7265341, “Quantifying CDK inhibitor selectivity in live cells” (Nature Communications, 2020).
Where two headings read alike, the source gives them in different places.

Assays:
Type in all cases: binding
CDK18/Cyclin Y = CDK18/Cyclin Y (Homo sapiens, UniProt Q07002); test: NanoBRET live-cell target engagement, CDK18-NanoLuc/Cyclin Y in HEK-293; conditions: CDK18/Y; for IC50: read-out: IC50
CDK5/CDK5R1 = CDK5/CDK5R1 (Homo sapiens, UniProt Q00535); test: NanoBRET live-cell target engagement, CDK5-NanoLuc/CDK5R1 in HEK-293
CDK5/CDK5R1, sequence (Q00535 whole entry): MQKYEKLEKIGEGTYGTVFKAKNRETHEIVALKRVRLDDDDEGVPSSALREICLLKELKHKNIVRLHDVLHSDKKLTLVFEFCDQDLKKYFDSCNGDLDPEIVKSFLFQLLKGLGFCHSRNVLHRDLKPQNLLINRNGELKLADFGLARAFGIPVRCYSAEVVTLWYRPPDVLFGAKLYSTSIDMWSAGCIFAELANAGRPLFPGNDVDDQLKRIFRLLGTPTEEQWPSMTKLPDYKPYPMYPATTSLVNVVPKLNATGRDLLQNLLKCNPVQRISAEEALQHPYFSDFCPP
CDK5/CDK5R1, sequence (Q15078 whole entry partner): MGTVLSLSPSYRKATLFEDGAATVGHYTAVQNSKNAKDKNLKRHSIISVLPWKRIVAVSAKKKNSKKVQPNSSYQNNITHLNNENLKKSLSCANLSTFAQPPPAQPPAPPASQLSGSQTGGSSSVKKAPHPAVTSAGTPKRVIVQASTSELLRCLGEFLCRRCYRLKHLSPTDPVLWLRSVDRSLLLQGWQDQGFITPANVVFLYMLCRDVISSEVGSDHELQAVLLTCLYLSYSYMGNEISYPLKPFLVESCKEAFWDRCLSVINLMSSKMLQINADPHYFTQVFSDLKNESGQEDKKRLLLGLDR

CDK20/Cyclin H = CDK20/Cyclin H (Homo sapiens, UniProt Q8IZL9); test: NanoBRET live-cell target engagement, NanoLuc-CDK20/Cyclin H in HEK-293; conditions: CDK20/H
CDK16/Cyclin Y = CDK16/Cyclin Y (Homo sapiens, UniProt Q00536); test: NanoBRET live-cell target engagement, CDK16-NanoLuc/Cyclin Y in HEK-293; conditions: CDK16/Y; for IC50: read-out: IC50
CDK4/Cyclin D1 = CDK4/Cyclin D1 (Homo sapiens, UniProt P11802); test: NanoBRET live-cell target engagement, NanoLuc-CDK4/Cyclin D1 in HEK-293; conditions: CDK4/D1; for IC50: read-out: IC50
CDK4/Cyclin D1, sequence (P11802 whole entry): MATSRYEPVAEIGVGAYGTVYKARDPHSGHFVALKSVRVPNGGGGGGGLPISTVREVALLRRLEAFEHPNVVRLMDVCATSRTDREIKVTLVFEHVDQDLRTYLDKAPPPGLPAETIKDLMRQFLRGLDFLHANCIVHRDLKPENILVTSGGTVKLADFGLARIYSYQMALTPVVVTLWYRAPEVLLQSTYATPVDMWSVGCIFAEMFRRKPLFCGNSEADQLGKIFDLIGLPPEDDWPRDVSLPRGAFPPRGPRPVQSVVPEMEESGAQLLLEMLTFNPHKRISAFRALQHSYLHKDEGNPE
CDK4/Cyclin D1, sequence (P24385 whole entry partner): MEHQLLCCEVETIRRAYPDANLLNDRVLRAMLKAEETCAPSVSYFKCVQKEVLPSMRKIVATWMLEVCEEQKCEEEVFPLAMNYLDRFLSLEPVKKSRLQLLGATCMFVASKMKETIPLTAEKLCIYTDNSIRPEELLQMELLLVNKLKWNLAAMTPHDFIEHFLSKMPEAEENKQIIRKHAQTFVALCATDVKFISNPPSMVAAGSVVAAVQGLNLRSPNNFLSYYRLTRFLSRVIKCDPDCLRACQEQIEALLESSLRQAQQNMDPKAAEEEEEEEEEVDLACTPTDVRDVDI

CDK12/Cyclin K = CDK12/Cyclin K (Homo sapiens, UniProt Q9NYV4); test: NanoBRET live-cell target engagement, CDK12-NanoLuc/Cyclin K in HEK-293; conditions: CDK12/K
CDK12/Cyclin K, sequence (Q9NYV4 1-1481 isoform Q9NYV4-2): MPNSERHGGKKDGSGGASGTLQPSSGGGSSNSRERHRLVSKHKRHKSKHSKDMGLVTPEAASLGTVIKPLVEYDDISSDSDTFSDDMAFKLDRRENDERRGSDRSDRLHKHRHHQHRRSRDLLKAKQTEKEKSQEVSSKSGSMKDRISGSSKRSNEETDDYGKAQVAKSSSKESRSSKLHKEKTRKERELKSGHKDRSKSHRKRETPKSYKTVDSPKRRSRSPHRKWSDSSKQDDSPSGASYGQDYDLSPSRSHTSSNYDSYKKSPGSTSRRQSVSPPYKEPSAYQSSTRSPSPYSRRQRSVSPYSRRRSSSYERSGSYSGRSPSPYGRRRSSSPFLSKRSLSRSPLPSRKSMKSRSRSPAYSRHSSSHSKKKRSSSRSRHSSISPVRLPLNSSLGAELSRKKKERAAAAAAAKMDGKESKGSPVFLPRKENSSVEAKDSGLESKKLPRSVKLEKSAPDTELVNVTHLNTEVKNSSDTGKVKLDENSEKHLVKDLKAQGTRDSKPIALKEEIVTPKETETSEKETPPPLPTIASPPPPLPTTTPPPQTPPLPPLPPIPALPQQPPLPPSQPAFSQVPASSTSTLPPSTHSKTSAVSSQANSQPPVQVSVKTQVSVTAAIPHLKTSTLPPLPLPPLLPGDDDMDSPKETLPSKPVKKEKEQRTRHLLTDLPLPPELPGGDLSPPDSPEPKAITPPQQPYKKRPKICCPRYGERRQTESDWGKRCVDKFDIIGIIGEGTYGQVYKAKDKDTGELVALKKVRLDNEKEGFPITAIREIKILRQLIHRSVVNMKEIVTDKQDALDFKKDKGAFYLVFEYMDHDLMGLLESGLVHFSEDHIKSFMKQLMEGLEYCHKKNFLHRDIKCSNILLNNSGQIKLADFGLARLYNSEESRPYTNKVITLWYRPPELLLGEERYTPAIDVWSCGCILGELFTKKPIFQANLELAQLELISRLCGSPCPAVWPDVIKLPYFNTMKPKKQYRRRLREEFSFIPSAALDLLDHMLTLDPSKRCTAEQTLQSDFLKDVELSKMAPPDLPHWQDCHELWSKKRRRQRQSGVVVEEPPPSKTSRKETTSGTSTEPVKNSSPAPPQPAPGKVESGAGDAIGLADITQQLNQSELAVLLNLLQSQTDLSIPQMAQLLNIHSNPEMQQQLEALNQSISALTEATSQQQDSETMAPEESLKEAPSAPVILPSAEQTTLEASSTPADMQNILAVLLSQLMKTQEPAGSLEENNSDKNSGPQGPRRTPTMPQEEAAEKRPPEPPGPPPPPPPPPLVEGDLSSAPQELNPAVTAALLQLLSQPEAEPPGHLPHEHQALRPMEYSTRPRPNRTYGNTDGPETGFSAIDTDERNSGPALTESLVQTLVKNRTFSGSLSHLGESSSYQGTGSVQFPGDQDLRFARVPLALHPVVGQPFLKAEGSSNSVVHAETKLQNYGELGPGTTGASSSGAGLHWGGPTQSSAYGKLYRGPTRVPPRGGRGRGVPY
CDK12/Cyclin K, sequence (O75909 whole entry partner): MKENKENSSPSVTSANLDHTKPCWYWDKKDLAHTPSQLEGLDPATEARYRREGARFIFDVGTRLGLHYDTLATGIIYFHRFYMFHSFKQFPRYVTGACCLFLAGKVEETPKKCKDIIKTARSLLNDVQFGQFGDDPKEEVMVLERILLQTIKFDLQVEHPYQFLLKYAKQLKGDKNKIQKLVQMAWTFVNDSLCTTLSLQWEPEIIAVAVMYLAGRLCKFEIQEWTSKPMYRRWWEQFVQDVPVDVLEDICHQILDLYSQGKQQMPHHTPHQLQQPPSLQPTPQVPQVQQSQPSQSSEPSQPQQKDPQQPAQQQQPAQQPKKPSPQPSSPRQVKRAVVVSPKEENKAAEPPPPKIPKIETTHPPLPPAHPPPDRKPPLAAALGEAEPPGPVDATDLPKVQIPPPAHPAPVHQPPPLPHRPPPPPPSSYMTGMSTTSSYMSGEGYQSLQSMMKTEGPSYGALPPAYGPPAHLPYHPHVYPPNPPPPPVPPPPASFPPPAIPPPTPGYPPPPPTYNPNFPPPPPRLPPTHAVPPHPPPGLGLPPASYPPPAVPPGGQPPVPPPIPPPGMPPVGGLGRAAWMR

CDK2/Cyclin E1 = CDK2/Cyclin E1 (Homo sapiens, UniProt P24941); test: NanoBRET live-cell target engagement, CDK2-NanoLuc/Cyclin E1 in HEK-293
CDK13/Cyclin K = CDK13/Cyclin K (Homo sapiens, UniProt Q14004); test: NanoBRET live-cell target engagement, CDK13-NanoLuc/Cyclin K in HEK-293; conditions: CDK13/K
CDK8/Cyclin C = CDK8/Cyclin C (Homo sapiens, UniProt P49336); test: NanoBRET live-cell target engagement, NanoLuc-CDK8/Cyclin C in HEK-293; conditions: CDK8/C
CDK9/Cyclin K = CDK9/Cyclin K (Homo sapiens, UniProt P50750); test: NanoBRET live-cell target engagement, NanoLuc-CDK9/Cyclin K in HEK-293; conditions: CDK9/K
CDK9/Cyclin K, sequence (P50750 whole entry): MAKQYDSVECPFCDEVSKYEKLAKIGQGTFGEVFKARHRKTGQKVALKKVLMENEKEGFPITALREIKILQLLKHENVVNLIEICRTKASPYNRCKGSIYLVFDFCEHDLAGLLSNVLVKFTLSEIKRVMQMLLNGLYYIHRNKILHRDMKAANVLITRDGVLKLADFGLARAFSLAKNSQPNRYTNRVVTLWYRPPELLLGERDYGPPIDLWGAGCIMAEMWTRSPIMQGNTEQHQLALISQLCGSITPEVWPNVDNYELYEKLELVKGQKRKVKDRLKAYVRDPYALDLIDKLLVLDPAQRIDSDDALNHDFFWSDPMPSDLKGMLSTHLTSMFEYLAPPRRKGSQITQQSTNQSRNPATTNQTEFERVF
CDK9/Cyclin K, sequence (O75909 whole entry partner): as the sequence (O75909 whole entry partner) above

CDK14/Cyclin Y = CDK14/Cyclin Y (Homo sapiens, UniProt O94921); test: NanoBRET live-cell target engagement, CDK14-NanoLuc/Cyclin Y in HEK-293; conditions: CDK14/Y
CDK14/Cyclin Y, sequence (O94921 whole entry): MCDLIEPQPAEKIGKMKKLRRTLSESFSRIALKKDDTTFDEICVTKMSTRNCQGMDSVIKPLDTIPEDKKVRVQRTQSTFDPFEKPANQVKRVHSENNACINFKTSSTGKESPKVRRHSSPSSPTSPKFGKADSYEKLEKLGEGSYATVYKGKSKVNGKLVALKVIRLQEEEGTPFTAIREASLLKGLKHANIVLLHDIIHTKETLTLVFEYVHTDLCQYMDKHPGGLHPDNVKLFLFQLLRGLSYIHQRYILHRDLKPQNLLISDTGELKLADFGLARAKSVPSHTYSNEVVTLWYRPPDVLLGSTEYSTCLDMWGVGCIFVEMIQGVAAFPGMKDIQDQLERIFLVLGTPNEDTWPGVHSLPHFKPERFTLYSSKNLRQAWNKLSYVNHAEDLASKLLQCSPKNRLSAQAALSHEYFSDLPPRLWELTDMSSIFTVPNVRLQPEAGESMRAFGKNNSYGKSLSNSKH
CDK14/Cyclin Y, sequence (Q8ND76 whole entry partner): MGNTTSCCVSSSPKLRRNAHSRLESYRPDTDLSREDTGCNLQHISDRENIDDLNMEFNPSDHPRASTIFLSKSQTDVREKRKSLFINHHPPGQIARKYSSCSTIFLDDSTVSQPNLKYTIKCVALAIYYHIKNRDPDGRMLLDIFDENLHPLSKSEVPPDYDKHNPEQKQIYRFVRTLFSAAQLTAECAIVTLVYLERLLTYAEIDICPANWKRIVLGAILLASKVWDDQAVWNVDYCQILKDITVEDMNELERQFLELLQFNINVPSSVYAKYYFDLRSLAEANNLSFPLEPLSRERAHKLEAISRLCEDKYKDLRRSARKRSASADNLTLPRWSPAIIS

`CC(C)c1cnn2c(NCc3ccccc3-n3cccn3)nc(OC3CCCNC3)nc12` (centres unmarked) [LDC4297] was tested. Which IC50 (CDK18/Cyclin Y; experiment 1) did it give?
The IC50 was 177 nM.

And the “Inhibition at 10µM (%)” value (CDK18/Cyclin Y; experiment 2)?
The value was 101.4%.

And the IC50 (CDK18/Cyclin Y; experiment 2)?
Its IC50 is 260 nM.

What about the IC50 (CDK18/Cyclin Y; experiment 3) of the same compound?
The IC50 was 262 nM.

What about the “Inhibition at 10µM (%)” value (CDK5/CDK5R1; CDK5/CDK5R1, average) of the same compound?
Its value is 89.8%.

And the IC50 (CDK5/CDK5R1; CDK5/CDK5R1, average (± SEM where n=3), read-out: IC50)?
Its IC50 is 280 ± 50 nM.

What about the “Inhibition at 10µM (%)” value (CDK5/CDK5R1; CDK5/CDK5R1, experiment 1) of the same compound?
Its value is 86.3%.

What about the IC50 (CDK5/CDK5R1; CDK5/CDK5R1, experiment 1, read-out: IC50) of the same compound?
Its IC50 is 204 nM.

What about the “Inhibition at 10µM (%)” value (CDK5/CDK5R1; CDK5/CDK5R1, experiment 2) of the same compound?
Its value is 93.4%.

And the IC50 (CDK5/CDK5R1; CDK5/CDK5R1, experiment 2, read-out: IC50)?
Its IC50 is 280 nM.

What about the IC50 (CDK5/CDK5R1; CDK5/CDK5R1, experiment 3, read-out: IC50) of the same compound?
The IC50 was 360 nM.

What about the IC50 (CDK5/CDK5R1; live HEK-293, 2 h, mean ± S.E.M. (n=3) or mean (n=2), read-out: IC50 for CDK/cyclin complexes, CDK5/R1) of the same compound?
The IC50 was 280 ± 50 nM.

What about the “Inhibition at 10µM (%)” value (CDK20/Cyclin H; experiment 1) of the same compound?
Its value is 53.8%.

And the “Inhibition at 10µM (%)” value (CDK20/Cyclin H; experiment 2)?
Its value is 57.6%.

And the IC50 (CDK16/Cyclin Y; average (± SEM where n=3))?
The IC50 was 400 ± 30 nM.

And the “Inhibition at 10µM (%)” value (CDK16/Cyclin Y; experiment 1)?
Its value is 87.3%.

And the IC50 (CDK16/Cyclin Y; experiment 1)?
Its IC50 is 332 nM.

And the “Inhibition at 10µM (%)” value (CDK16/Cyclin Y; experiment 2)?
The value was 88.6%.

And the IC50 (CDK16/Cyclin Y; experiment 2)?
The IC50 was 430 nM.

And the IC50 (CDK16/Cyclin Y; experiment 3)?
The IC50 was 428 nM.

And the “Inhibition at 10µM (%)” value (CDK4/Cyclin D1; average)?
The value was 58.1%.

What about the IC50 (CDK4/Cyclin D1; average (± SEM where n=3)) of the same compound?
Its IC50 is 80 ± 30 nM.

What about the “Inhibition at 10µM (%)” value (CDK4/Cyclin D1; experiment 1) of the same compound?
The value was 52.3%.

And the IC50 (CDK4/Cyclin D1; experiment 1)?
Its IC50 is 20 nM.

What about the “Inhibition at 10µM (%)” value (CDK4/Cyclin D1; experiment 2) of the same compound?
Its value is 64.0%.

And the IC50 (CDK4/Cyclin D1; experiment 2)?
The IC50 was 100 nM.

What about the IC50 (CDK4/Cyclin D1; experiment 3) of the same compound?
The IC50 was 104 nM.

And the “Inhibition at 10µM (%)” value (CDK12/Cyclin K; average)?
The value was 18.0%.

What about the “Inhibition at 10µM (%)” value (CDK12/Cyclin K; experiment 1) of the same compound?
Its value is 25.5%.

What about the “Inhibition at 10µM (%)” value (CDK12/Cyclin K; experiment 2) of the same compound?
Its value is 10.4%.

And the “Inhibition at 10µM (%)” value (CDK2/Cyclin E1; CDK2/E1, average)?
The value was 88.3%.

And the IC50 (CDK2/Cyclin E1; CDK2/E1, average (± SEM where n=3), read-out: IC50)?
Its IC50 is 85 ± 2 nM.

And the “Inhibition at 10µM (%)” value (CDK2/Cyclin E1; CDK2/E1, experiment 1)?
Its value is 85.3%.

And the IC50 (CDK2/Cyclin E1; CDK2/E1, experiment 1, read-out: IC50)?
Its IC50 is 81 nM.

And the “Inhibition at 10µM (%)” value (CDK2/Cyclin E1; CDK2/E1, experiment 2)?
Its value is 91.3%.

And the IC50 (CDK2/Cyclin E1; CDK2/E1, experiment 2, read-out: IC50)?
The IC50 was 86 nM.

And the IC50 (CDK2/Cyclin E1; CDK2/E1, experiment 3, read-out: IC50)?
Its IC50 is 85 nM.

And the IC50 (CDK2/Cyclin E1; live HEK-293, 2 h, mean ± S.E.M. (n=3) or mean (n=2), read-out: IC50 for CDK/cyclin complexes, CDK2/E1)?
Its IC50 is 85 ± 2 nM.

What about the “Inhibition at 10µM (%)” value (CDK13/Cyclin K; average) of the same compound?
Its value is 24.9%.

And the “Inhibition at 10µM (%)” value (CDK13/Cyclin K; experiment 1)?
The value was 20.0%.

And the “Inhibition at 10µM (%)” value (CDK13/Cyclin K; experiment 2)?
The value was 29.8%.

And the “Inhibition at 10µM (%)” value (CDK8/Cyclin C; average)?
Its value is 3.8%.

What about the “Inhibition at 10µM (%)” value (CDK8/Cyclin C; experiment 1) of the same compound?
Its value is 14.8%.

What about the “Inhibition at 10µM (%)” value (CDK8/Cyclin C; experiment 2) of the same compound?
Its value is -7.1%.

What about the “Inhibition at 10µM (%)” value (CDK9/Cyclin K; average) of the same compound?
Its value is 42.4%.

And the “Inhibition at 10µM (%)” value (CDK9/Cyclin K; experiment 1)?
Its value is 42.8%.

What about the “Inhibition at 10µM (%)” value (CDK9/Cyclin K; experiment 2) of the same compound?
The value was 42.0%.

And the “Inhibition at 10µM (%)” value (CDK14/Cyclin Y; average)?
The value was 89.0%.

And the “Inhibition at 10µM (%)” value (CDK14/Cyclin Y; experiment 1)?
Its value is 88.6%.

And the “Inhibition at 10µM (%)” value (CDK14/Cyclin Y; experiment 2)?
The value was 89.3%.
